The target in assay [1] is T1, Mitogen-activated protein kinase kinase kinase 2 (Homo sapiens, UniProt Q9Y2U5).
T1 sequence (Q9Y2U5 whole entry): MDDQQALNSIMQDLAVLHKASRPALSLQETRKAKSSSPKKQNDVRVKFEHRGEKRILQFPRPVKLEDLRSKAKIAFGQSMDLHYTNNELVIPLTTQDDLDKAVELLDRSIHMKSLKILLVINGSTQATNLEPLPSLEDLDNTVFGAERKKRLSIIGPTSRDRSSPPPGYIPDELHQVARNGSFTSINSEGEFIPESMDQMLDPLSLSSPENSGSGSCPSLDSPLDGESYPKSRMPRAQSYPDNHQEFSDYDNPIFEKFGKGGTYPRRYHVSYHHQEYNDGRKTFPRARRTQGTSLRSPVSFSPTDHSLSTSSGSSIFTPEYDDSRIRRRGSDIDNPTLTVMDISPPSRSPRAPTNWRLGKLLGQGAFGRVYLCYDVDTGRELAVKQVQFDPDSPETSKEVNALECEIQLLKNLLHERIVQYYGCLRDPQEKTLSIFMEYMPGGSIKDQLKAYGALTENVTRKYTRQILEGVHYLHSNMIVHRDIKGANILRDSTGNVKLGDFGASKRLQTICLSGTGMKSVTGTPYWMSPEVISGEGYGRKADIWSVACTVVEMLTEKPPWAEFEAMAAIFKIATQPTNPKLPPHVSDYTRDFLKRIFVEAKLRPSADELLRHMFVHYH

Assay [2] deals with GTP-binding protein 4 (Homo sapiens, UniProt Q9BZE4).
Assay [3] deals with T2, Ras-related protein Rab-10 (Homo sapiens, UniProt P61026).
T2 sequence (P61026 whole entry): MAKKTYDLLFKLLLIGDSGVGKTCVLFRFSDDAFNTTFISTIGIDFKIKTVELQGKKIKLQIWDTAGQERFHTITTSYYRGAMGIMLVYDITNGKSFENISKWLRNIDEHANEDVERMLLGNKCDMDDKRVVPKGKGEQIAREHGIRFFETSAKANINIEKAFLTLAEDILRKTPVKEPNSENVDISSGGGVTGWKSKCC

In assay [4] the target is Tyrosine-protein kinase FRK (Homo sapiens, UniProt P42685).
Tyrosine-protein kinase FRK, sequence (P42685 whole entry): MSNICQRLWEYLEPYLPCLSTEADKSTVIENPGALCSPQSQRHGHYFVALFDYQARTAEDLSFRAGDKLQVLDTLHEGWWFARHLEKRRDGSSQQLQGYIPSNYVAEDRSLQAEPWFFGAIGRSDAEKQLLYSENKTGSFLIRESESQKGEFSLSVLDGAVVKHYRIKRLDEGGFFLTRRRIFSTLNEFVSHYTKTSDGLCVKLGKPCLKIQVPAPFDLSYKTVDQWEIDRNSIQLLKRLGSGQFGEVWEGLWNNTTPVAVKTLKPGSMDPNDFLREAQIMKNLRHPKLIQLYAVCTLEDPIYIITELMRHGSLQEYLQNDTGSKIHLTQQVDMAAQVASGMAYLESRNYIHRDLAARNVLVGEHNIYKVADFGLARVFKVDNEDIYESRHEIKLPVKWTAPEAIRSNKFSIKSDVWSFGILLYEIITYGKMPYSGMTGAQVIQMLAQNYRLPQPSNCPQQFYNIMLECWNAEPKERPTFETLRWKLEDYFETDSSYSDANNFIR
Assay [5] has as its target T3, MAP kinase-activated protein kinase 5 (Homo sapiens, UniProt Q8IW41).
T3 sequence (Q8IW41 whole entry): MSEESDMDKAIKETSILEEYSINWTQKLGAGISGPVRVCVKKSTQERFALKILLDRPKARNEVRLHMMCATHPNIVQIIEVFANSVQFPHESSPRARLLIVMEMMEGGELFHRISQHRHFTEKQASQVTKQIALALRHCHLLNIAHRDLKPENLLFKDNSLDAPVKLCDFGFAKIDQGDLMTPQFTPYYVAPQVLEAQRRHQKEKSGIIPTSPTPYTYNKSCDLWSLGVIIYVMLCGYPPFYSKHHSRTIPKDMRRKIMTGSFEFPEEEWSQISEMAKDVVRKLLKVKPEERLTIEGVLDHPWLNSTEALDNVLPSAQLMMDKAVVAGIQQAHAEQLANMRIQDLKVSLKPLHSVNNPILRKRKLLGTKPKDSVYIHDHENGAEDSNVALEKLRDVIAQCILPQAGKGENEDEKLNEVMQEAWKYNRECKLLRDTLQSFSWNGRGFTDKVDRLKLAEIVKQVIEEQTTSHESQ

Assay [6] addresses Protein kinase C alpha type (Homo sapiens, UniProt P17252).
In assay [7] the target is Activin receptor type-2B (Homo sapiens, UniProt Q13705).
Activin receptor type-2B, sequence (Q13705 whole entry): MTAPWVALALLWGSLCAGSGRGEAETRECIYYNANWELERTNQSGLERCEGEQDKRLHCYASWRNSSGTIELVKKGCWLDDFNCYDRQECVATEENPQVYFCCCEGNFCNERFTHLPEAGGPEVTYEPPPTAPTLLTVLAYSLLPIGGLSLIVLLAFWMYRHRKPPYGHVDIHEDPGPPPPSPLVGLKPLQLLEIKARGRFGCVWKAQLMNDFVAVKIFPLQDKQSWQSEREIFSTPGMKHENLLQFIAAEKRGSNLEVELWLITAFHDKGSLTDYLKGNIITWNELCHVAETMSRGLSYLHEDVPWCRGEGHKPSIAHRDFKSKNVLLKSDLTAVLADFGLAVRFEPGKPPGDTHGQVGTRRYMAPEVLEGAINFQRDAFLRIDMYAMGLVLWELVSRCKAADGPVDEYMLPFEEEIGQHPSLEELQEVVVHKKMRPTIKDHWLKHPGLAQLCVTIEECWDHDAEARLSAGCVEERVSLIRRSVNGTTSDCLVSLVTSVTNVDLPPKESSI
For assay [8], the target named is T4, Bifunctional phosphoribosylaminoimidazole carboxylase/phosphoribosylaminoimidazole succinocarboxamide synthetase (Homo sapiens, UniProt P22234).
T4 sequence (P22234 whole entry): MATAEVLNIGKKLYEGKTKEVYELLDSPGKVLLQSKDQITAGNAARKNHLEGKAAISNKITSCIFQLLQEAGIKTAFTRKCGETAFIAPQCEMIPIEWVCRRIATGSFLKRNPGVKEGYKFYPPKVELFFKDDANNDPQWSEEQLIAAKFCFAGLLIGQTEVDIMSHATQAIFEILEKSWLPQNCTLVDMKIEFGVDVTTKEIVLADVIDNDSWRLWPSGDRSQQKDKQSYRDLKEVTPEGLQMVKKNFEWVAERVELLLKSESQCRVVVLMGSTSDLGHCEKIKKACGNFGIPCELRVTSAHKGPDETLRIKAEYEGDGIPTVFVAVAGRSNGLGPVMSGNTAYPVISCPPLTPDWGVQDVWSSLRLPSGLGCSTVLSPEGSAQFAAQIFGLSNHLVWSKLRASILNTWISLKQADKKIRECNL

Assay [9] addresses T5, AarF domain-containing protein kinase 1 (Homo sapiens, UniProt Q86TW2).
T5 sequence (Q86TW2 whole entry): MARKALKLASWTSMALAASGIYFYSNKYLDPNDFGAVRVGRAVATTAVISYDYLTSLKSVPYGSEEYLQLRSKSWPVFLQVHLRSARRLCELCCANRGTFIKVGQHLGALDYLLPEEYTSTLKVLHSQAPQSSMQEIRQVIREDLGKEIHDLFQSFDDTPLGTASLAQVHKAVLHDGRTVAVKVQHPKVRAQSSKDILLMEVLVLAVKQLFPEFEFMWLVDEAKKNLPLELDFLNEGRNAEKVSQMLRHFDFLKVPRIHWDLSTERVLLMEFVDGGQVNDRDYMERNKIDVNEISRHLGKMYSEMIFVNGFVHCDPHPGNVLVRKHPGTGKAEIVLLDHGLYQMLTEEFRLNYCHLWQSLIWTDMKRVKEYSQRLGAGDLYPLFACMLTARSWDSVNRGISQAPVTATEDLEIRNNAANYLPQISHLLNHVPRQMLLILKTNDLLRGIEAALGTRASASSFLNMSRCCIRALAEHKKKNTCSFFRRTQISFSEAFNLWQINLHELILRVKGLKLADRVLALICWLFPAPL

SMILES strings stand for the structures. Calls of active or inactive are those of the source.
Note: in the data inactive means no Kd found up to 30 µM.

Regarding `COc1cc(OC)c(/C=C/S(=O)(=O)Cc2ccc(OC)c(NCC(=O)O)c2)c(OC)c1` [RIGOSERTIB], the Kd in [1], in assay [2], in assay [3], in [4], in assay [5] and in [6] was > 30 µM (inactive) each time. Moreover, the Kd in [7], in assay [8] and in assay [9] was > 30 µM (inactive) throughout.
For `CC[C@@H]1C(=O)N(C)c2cnc(Nc3ccc(C(=O)N[C@H]4CC[C@H](N5CCN(CC6CC6)CC5)CC4)cc3OC)nc2N1C(C)C` [VOLASERTIB], the Kd in [1], in assay [2], in [3], in assay [4], in [5] and in [6] was > 30 µM (inactive) each time. The Kd in assay [7], in assay [8] and in assay [9] was > 30 µM (inactive) throughout.
As for `Cc1cc(-c2cc(O)ccc2Cl)cc2nnc(Nc3ccc(OCCN4CCCC4)cc3)nc12`, the Kd (commonly a measure of binding affinity in units of concentration) in assay [1] was > 30 µM (inactive); in assay [2], > 30 µM (inactive); in [3], > 30 µM (inactive); in [4], 0.001 µM (active); in assay [5], > 30 µM (inactive); in assay [6], > 30 µM (inactive). Further, the Kd in assay [7], in [8] and in [9] was > 30 µM (inactive) each time.
For the compound `OCCn1cc(-c2cnc3nnn(Cc4ccc5ncccc5c4)c3n2)cn1` [PF-04217903], the Kd in assay [1], in assay [2], in [3], in [4], in [5] and in [6] was > 30 µM (inactive) throughout. Besides, the Kd in assay [7], in assay [8] and in [9] was > 30 µM (inactive) throughout.
As for `Cn1ncc(Cl)c1-c1cc(C(=O)N[C@H](CN)Cc2cccc(F)c2)sc1Cl` [AFURESERTIB], the Kd was > 30 µM (inactive) in [1]; > 30 µM (inactive) in [2]; > 30 µM (inactive) in [3]; > 30 µM (inactive) in [4]; > 30 µM (inactive) in assay [5]; 21.4 µM (active) in assay [6]. In addition, the Kd in [7], in assay [8] and in assay [9] was > 30 µM (inactive) each time.
As to `CN1CCC(CNc2ccc3ncc(-c4cccc(OC(F)(F)F)c4)n3n2)CC1` [SGI-1776], the Kd in [1], in assay [2], in assay [3], in assay [4], in assay [5] and in [6] was > 30 µM (inactive) each time. For the same compound, the Kd in assay [7], in [8] and in assay [9] was > 30 µM (inactive) each time.
On to `CC[C@H](Nc1ncnc2[nH]cnc12)c1nc2cccc(F)c2c(=O)n1-c1ccccc1` [IDELALISIB], for which the Kd in assay [1], in [2], in [3], in assay [4], in [5] and in [6] was > 30 µM (inactive) each time. The Kd in assay [7], in [8] and in assay [9] was > 30 µM (inactive) throughout.
As to `COC(=O)N[C@@H](C)CNc1nccc(-c2cn(C(C)C)nc2-c2cc(Cl)cc(NS(C)(=O)=O)c2F)n1` [ENCORAFENIB], the Kd in assay [1], in [2], in assay [3], in assay [4], in assay [5] and in [6] was > 30 µM (inactive) in each case. Further, the Kd in assay [7], in [8] and in [9] was > 30 µM (inactive) in each case.
Turning to `O=c1sn(-c2cccc3ccccc23)c(=O)n1Cc1ccccc1` [TIDEGLUSIB], the Kd in assay [1], in [2], in [3], in assay [4], in [5] and in assay [6] was > 30 µM (inactive) each time. The Kd in [7], in [8] and in [9] was > 30 µM (inactive) throughout.
As for `O=C(c1ccc(F)c(F)c1Nc1ccc(I)cc1F)N1CC(O)([C@@H]2CCCCN2)C1` [COBIMETINIB], the Kd in assay [1], in assay [2], in [3], in assay [4], in assay [5] and in [6] was > 30 µM (inactive) throughout. Moreover, the Kd in assay [7], in [8] and in [9] was > 30 µM (inactive) throughout.
As for `C1=C/COCc2cc(ccc2OCCN2CCCC2)Nc2nccc(n2)-c2cccc(c2)COC/1` [PACRITINIB], the Kd in assay [1] is > 30 µM (inactive); in assay [2] it was > 30 µM (inactive); in assay [3], > 30 µM (inactive); in [4] it was > 30 µM (inactive); in assay [5], > 30 µM (inactive); in assay [6] it was 0.934 µM (active). The Kd in assay [7] is > 30 µM (inactive); in assay [8] it was > 30 µM (inactive); in [9], 0.033 µM (active).
In the case of `Cn1cc(-c2ccc(F)c(C(F)(F)F)c2)nc1C1CCN(c2ncnc3[nH]ncc23)CC1` [LY-2584702], the Kd in assay [1], in [2], in assay [3], in assay [4], in assay [5] and in assay [6] was > 30 µM (inactive) each time. Besides, the Kd in assay [7], in [8] and in [9] was > 30 µM (inactive) throughout.

(Values after ChEMBL document CHEMBL3991601, “The target landscape of clinical kinase drugs” (Science, 2017).)
